Drawing on PubChem BioAssay AID330 (DTP/NCI, 2004), this text covers T/C for 23 molecules.

Each structure is given as a SMILES string. Where “and” joins values, the source holds several entries; their conditions need not be identical. Identical values can stand only once. Toxic doses and inconclusive results are not listed.

The experiment has as its system P388 leukemia ip, CD2F1 mice, survival T/C. The experiment can be described thus: NCI In Vivo Anticancer Drug Screen. Data for tumor model P388 Leukemia (intraperitoneal) in CD2F1 (CDF1) mice. The settings on record: endpoint: median survival time, higher = longer survival. The gist of the method: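 Mice carrying the transplanted tumor received test compound or vehicle. Survival was recorded in each group, and the value is the treated-group measurement divided by that of the vehicle-treated control group.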

[1] abbreviates: dose: 50.0 mg/kg/injection, schedule: Q01DX005 (ip), vehicle: saline with Tween-80.
The mark [2] stands for this setting: dose: 100.0 mg/kg/injection, schedule: Q01DX005 (ip), vehicle: saline with Tween-80.
The mark [3] stands for this setting: dose: 200.0 mg/kg/injection, schedule: Q01DX005 (ip), vehicle: saline with Tween-80.
Setting [4] is: dose: 50.0 mg/kg/injection, schedule: Q01DX005 (ip), vehicle: Klucel (hydroxypropylcellulose) (HPC).
Setting [5] is: dose: 100.0 mg/kg/injection, schedule: Q01DX005 (ip), vehicle: Klucel (hydroxypropylcellulose) (HPC).
Where [6] appears, read: dose: 50.0 mg/kg/injection, schedule: Q01DX009 (ip), vehicle: saline.
Setting [7] is: dose: 100.0 mg/kg/injection, schedule: Q01DX009 (ip), vehicle: saline.
Setting [8] is: dose: 200.0 mg/kg/injection, schedule: Q01DX009 (ip), vehicle: saline.
Where [9] appears, read: dose: 60.0 mg/kg/injection, schedule: Q01DX005 (ip), vehicle: saline.
[10] abbreviates: dose: 120.0 mg/kg/injection, schedule: Q01DX005 (ip), vehicle: saline.
Where [11] appears, read: dose: 60.0 mg/kg/injection, schedule: Q01DX005 (ip), vehicle: saline with Tween-80.
Setting [12] is: dose: 120.0 mg/kg/injection, schedule: Q01DX005 (ip), vehicle: saline with Tween-80.
[13] abbreviates: dose: 6.25 mg/kg/injection, schedule: Q01DX009 (ip), vehicle: saline with Tween-80.
Setting [14] is: dose: 12.5 mg/kg/injection, schedule: Q01DX009 (ip), vehicle: saline with Tween-80.
Setting [15] is: dose: 25.0 mg/kg/injection, schedule: Q01DX009 (ip), vehicle: saline with Tween-80.

Consider `CC(=O)SC1C(=O)N(C)C(SC(C)=O)C(=O)N1C` (configuration not stated), for which the T/C is, setting by setting: (dose: 6.25 mg/kg/injection, schedule: Q01DX009 (ip), vehicle: saline) 107 % of control; (dose: 12.5 mg/kg/injection, schedule: Q01DX009 (ip), vehicle: saline) 110 % of control.

Consider `Cc1cc(=O)n(-c2ccc([N+](=O)[O-])cc2)c(C)c1C(=O)O`, for which the T/C by setting is: under setting [1], 98 % of control; under setting [2], 103 % of control; under setting [3], 106 % of control.

Turning to `CN(C)C1CCc2ccc3ccccc3c2C1=O` (configuration not stated), the T/C is, setting by setting: under setting [4], 98 % of control; under setting [5], 103 % of control.

For `O=C(O)c1cc([N+](=O)[O-])cc([N+](=O)[O-])c1Sc1ncccn1`, the T/C by setting is: under setting [6], 96 % of control; under setting [7], 100 % of control; under setting [8], 101 % of control.

Take `COC(=O)C(C)CSc1ccccc1` (configuration not stated): the T/C was 99 % of control under setting [9] and 107 % of control under setting [10].

Consider `Cc1c([N+](=O)[O-])oc2cc3c(cc12)CCCC3`, for which the T/C was 91 % of control under setting [11]; 93 % of control under setting [12]; 94 % of control (dose: 240.0 mg/kg/injection, schedule: Q01DX005 (ip), vehicle: saline with Tween-80).

For the molecule `O=C([Se][Se]C(=O)c1ccccc1)c1ccccc1`, the T/C under setting [13] is 101 % of control, the T/C under setting [14] was 107 % of control and the T/C under setting [15] is 107 % of control.

Consider `O=c1[nH]nc(SCc2ccccc2Cl)c(=O)[nH]1`, for which the T/C (dose: 25.0 mg/kg/injection, schedule: Q01DX005 (ip), vehicle: Klucel (hydroxypropylcellulose) (HPC)) was 89 % of control; the T/C under setting [4] was 89 % of control; the T/C under setting [5] was 86 % of control.

As to `[Br][Pb]([Br])([c]1ccccc1)[c]1ccccc1`, the T/C runs as follows: under setting [14], 104 % of control and 112 % of control; under setting [15], 113 % of control (2×) and 114 % of control; (dose: 50.0 mg/kg/injection, schedule: Q01DX009 (ip), vehicle: saline with Tween-80) 107 % of control and 121 % of control; (dose: 100.0 mg/kg/injection, schedule: Q01DX009 (ip), vehicle: saline with Tween-80) 98 % of control.

As to `CN(/N=C/c1ccc2c(c1)OCO2)c1ccc([N+](=O)[O-])cc1`, the T/C was 89 % of control under setting [4] and 89 % of control under setting [5].

For `N#Cc1nc(CC(=O)/C=C/c2ccccc2)c(CC(=O)/C=C/c2ccccc2)nc1C#N`, the T/C is 103 % of control under setting [9]; 103 % of control under setting [10]; 112 % of control (dose: 240.0 mg/kg/injection, schedule: Q01DX005 (ip), vehicle: saline).

As for `CSc1nc2c(Cl)ncnc2s1`, the T/C was 96 % of control under setting [11] and 96 % of control under setting [12].

Take `C=CCCCn1nnc2ccccc21`: the T/C was 102 % of control (dose: 100.0 mg/kg/injection, schedule: Q04DX003 (ip), vehicle: saline with Tween-80); 94 % of control (dose: 200.0 mg/kg/injection, schedule: Q04DX003 (ip), vehicle: saline with Tween-80); 86 % of control (dose: 400.0 mg/kg/injection, schedule: Q04DX003 (ip), vehicle: saline with Tween-80).

As to `O=C1NC(=O)C2(C(=O)c3cccc4cccc2c34)N1c1ccccc1` (configuration not stated), the T/C (dose: 50.0 mg/kg/injection, schedule: Q01DX009 (ip), vehicle: distilled water + alcohol) was 94 % of control; the T/C (dose: 100.0 mg/kg/injection, schedule: Q01DX009 (ip), vehicle: distilled water + alcohol) is 102 % of control; the T/C (dose: 200.0 mg/kg/injection, schedule: Q01DX009 (ip), vehicle: distilled water + alcohol) is 100 % of control.

`CC(C)C1(C(C)C)OCCO1`: the T/C is 100 % of control under setting [6], 109 % of control under setting [7] and 109 % of control under setting [8].

With `Cc1cc(C)nc(NS(=O)(=O)c2ccc(Nc3c4ccc(Cl)cc4nc4ncccc34)cc2)n1`, the T/C under setting [1] was 110 % of control, the T/C under setting [2] was 106 % of control and the T/C under setting [3] is 116 % of control.

Take `O=C(O)c1cccc2c1SC(c1ccccc1)OC2=O` (configuration not stated): the T/C runs as follows: (dose: 50.0 mg/kg/injection, schedule: Q01DX005 (ip), vehicle: distilled water + alcohol) 103 % of control; (dose: 100.0 mg/kg/injection, schedule: Q01DX005 (ip), vehicle: distilled water + alcohol) 99 % of control; (dose: 200.0 mg/kg/injection, schedule: Q01DX005 (ip), vehicle: distilled water + alcohol) 109 % of control.

Consider `O=C1OCC2=C1CN1CCc3cc4c(cc3C1C2)OCO4` (configuration not stated), for which the T/C reads like this: (dose: 0.63 mg/kg/injection, schedule: Q01DX009 (ip), vehicle: distilled water + Tween-80) 94 % of control; (dose: 1.25 mg/kg/injection, schedule: Q01DX009 (ip), vehicle: distilled water + Tween-80) 103 % of control; (dose: 2.5 mg/kg/injection, schedule: Q01DX009 (ip), vehicle: distilled water + Tween-80) 112 % of control; (dose: 5.0 mg/kg/injection, schedule: Q01DX009 (ip), vehicle: distilled water + Tween-80) 103 % of control; (dose: 10.0 mg/kg/injection, schedule: Q01DX009 (ip), vehicle: distilled water + Tween-80) 103 % of control; (dose: 20.0 mg/kg/injection, schedule: Q01DX009 (ip), vehicle: distilled water + Tween-80) 94 % of control.

With `c1cc(-c2cc3ccc(C4=NCCN4)cc3[nH]2)ccc1C1=NCCN1`, the T/C runs as follows: (dose: 6.25 mg/kg/injection, schedule: Q04DX003 (ip), vehicle: saline) 116 % of control; (dose: 12.5 mg/kg/injection, schedule: Q04DX003 (ip), vehicle: saline) 118 % of control; (dose: 50.0 mg/kg/injection, schedule: Q04DX003 (ip), vehicle: saline) 154 % of control and 171 % of control and 172 % of control.

Take `O=CNCNC=O`: the T/C reads like this: under setting [6], 95 % of control; under setting [7], 90 % of control; under setting [8], 99 % of control.

With `CC(C)COCSCC(NC(=O)CNC(=O)C(Cc1ccccc1)NC(=O)CNC(=O)C(CSC(c1ccccc1)(c1ccccc1)c1ccccc1)NC(c1ccccc1)(c1ccccc1)c1ccccc1)C(=O)O` (configuration not stated), the T/C runs as follows: (dose: 15.0 mg/kg/injection, schedule: Q01DX005 (ip), vehicle: Klucel (hydroxypropylcellulose) (HPC)) 97 % of control; (dose: 30.0 mg/kg/injection, schedule: Q01DX005 (ip), vehicle: Klucel (hydroxypropylcellulose) (HPC)) 96 % of control; (dose: 60.0 mg/kg/injection, schedule: Q01DX005 (ip), vehicle: Klucel (hydroxypropylcellulose) (HPC)) 88 % of control and 94 % of control.

With `CN(c1ccccc1)P(C)(Cl)(c1ccccc1)c1ccccc1`, the T/C was 101 % of control (dose: 1.56 mg/kg/injection, schedule: Q01DX009 (ip), vehicle: saline with Tween-80); 109 % of control (dose: 3.13 mg/kg/injection, schedule: Q01DX009 (ip), vehicle: saline with Tween-80); 118 % of control under setting [13].

As to `N#CC(C(=O)O)C(c1c(Cl)cccc1Cl)C(C#N)C(=O)O` (configuration not stated), the T/C under setting [1] is 97 % of control and the T/C under setting [2] is 89 % of control.
